Source: patent US20080045512A1, “Benzoate salt of 4-(5-methyl-oxazolo[4,5-b]-pyridin-2-yl)-1,4-diazabicyclo[3.2.2]nonane” (Pfizer Inc., priority 2006, published 2008)
Where a name gives a salt, the structure may show the parent alone.

Experiments:
[1] = cited from earlier work
[2] = cited from earlier work; remark: listed apart in the source
[3] = Hygroscopicity by dynamic vapor sorption (isothermal moisture sorption analysis); assay type: physicochemical; settings: for hygroscopicity (result in words): dynamic vapor sorption, 25° C.
Procedure: Hygroscopicity was assessed using a dynamic vapor sorption technique in which an accurately weighed sample is subjected to progressively changing water vapor pressure while simultaneously recording the weight change. The experiment is conducted isothermally at 25° C.
For 4-(5-methyloxazolo[4,5-b]pyridin-2-yl)-1,4-diazabicyclo[3.2.2]nonane benzoate Form A, less than 0.1% increase in weight was detected at 90±2% relative humidity during an isothermal (24.9±0.1° C.) moisture sorption analysis conducted from approximately 1% to 90% (±2%) humidity. Considering standard deviation, it is considered that increase in weight is less than 0.2%.

[4] = Comparison of salts of Formula I: physical properties tested and observed; assay type: physicochemical
Procedure: Physical properties of various salts of Formula I were tested and observed.

## O=C1Cc2cc(CCN3CCN(c4nsc5ccccc45)CC3)c(Cl)cc2N1 [Ziprasidone, 5-[2-[4-(1,2-benzisothiazol-3-yl)piperazin-1-yl]ethyl]-6-chloroindolin-2-one]
[1]; in vivo
  half-life: 6 to 7 h
[1]; taken with food
  Oral bioavailability: approximately 60%
[2]
  protein binding: extensive

## Cc1ccc2oc(N3CCN4CCC3CC4)nc2n1 [benzoate salt of Formula I, 4-(5-methyloxazolo[4,5-b]pyridin-2-yl)-1,4-diazabicyclo[3.2.2]nonane benzoate]
[3]; at 90±2% relative humidity, isothermal 24.9±0.1° C., from approximately 1% to 90% (±2%) humidity
  increase in weight in moisture sorption analysis: less than 0.1%
[3]
  hygroscopicity (result in words): relatively non-hygroscopic
[3]; listed as 4-(5-methyloxazolo[4,5-b]pyridin-2-yl)-1,4-diazabicyclo[3.2.2]nonane benzoate Fo
  hygroscopicity (result in words): non-hygroscopic

## L-lactate
[4]
  hygroscopicity (result in words): undesirable hygroscopicity

## fumarate
[4]
  hygroscopicity (result in words): undesirable hygroscopicity
